Source: publication PMC6198970, “Safety, efficacy, and dose response of the maturation inhibitor GSK3532795 (formerly known as BMS-955176) plus tenofovir/emtricitabine once daily in treatment-naive HIV-1-infected adults: Week 24 primary analysis from a randomized Phase IIb trial” (PLoS ONE, 2018)
“And” between values parts separate entries of the source, which are not always exact repeats. Equal entries are not always repeated. Where two headings read alike, the source gives them in different places.

Experiments:
[1] = system: 23 isolates of subtype C viruses; parameters: method as in protocol Section 1.4.1.2; conditions: 23 subtype C isolates; ref protocol Section 1.4.1.2; read-out: EC50, median; cited from earlier work
CYP3A4 = system: CYP3A4; parameters: method as in protocol Section 1.4.1.2; conditions: ref protocol Section 1.4.1.2; cited from earlier work
[2] = parameters: method as in protocol Section 1.4.1.2; conditions: 100% human serum; ref protocol Section 1.4.1.2; listed as BMS-955176; cited from earlier work
HIV-1 [3] = conditions: ref AI468002, cited from earlier work
cytochrome P450 (CYP)3A4 = system: cytochrome P450 (CYP)3A4; parameters: method as in protocol Section 1.4.1.2; conditions: ref protocol Section 1.4.1.2; cited from earlier work
93 subtype B viruses = system: 93 subtype B viruses; parameters: method as in protocol Section 1.4.1.2; conditions: ref protocol Section 1.4.1.2, read-out: EC50, median; cited from earlier work
[4] = Intensive PK, non-compartmental analysis and dose proportionality; type: in vivo, HIV-1-infected adults
Description: Due to the EFV component of the blinded drug regimens, administration of study drug required both morning and evening dosing,12 hours apart. […] All bioanalytical analyses were conducted by PPD® Laboratories using validated high-performance liquid chromatography/mass spectroscopy assays. Intensive plasma GSK3532795 concentrations were analyzed by non-compartmental analysis using the actual sampling times in WinNonlin version 6.3.0 (Pharsight, St. Louis, Missouri, USA). […] To assess the dose proportionality of GSK3532795 when co-administered with TDF/FTC, a mixed-effect model with log-transformed dose as the fixed effect and each participant as the random effect was used to fit a power model in SAS version 9.1.3.

[5] = cited from earlier work
[6] = parameters: method as in protocol Section 1.4.1.2; conditions: 300 mg/kg/day (AUC 279 g·h/mL); ref protocol Section 1.4.1.2; cited from earlier work
HIV-1 [7] = test: Protocol-defined virologic failure and drug resistance testing (GenoSure MG, PhenoSense); type: in vivo, HIV-1-infected adults; conditions: through Week 24
Source text: PDVF was defined as either: (1) confirmed HIV-1 RNA ≥40 copies/mL at any time after prior confirmed suppression to <40 copies/mL; or (2) a confirmed >1 log10 copies/mL above the nadir level. Genotypic information required for screening was generated using the GenoSure® MG assay; genotypic information and phenotypic observations during the treatment period were generated using the PhenoSense® combination resistance test.

[8] = cited from earlier work; remark: listed apart in the source
HIV-1 [9] = test: Phase IIb study 205891: plasma HIV-1 RNA response at Week 24 (FDA snapshot, observed); type: in vivo, HIV-1-infected adults; conditions: Week 24, mITT; GSK3532795: range across 60, 120, 180 mg arms; EFV 600 mg; each + TDF/FTC
Description: The primary endpoint was determination of the proportion of participants with plasma HIV-1 RNA <40 copies/mL at Week 24 after treatment with GSK3532795 or efavirenz (EFV).
205891 was a Phase IIb, randomized, active-controlled, double-blind trial performed at 58 sites in 12 countries across South America, North America, South Africa, and Europe. Participants were randomized 1:1:1:1 to one of four treatment arms; GSK3532795 at doses of 60 mg, 120 mg or 180 mg once daily (QD), and one reference arm with EFV at a dose of 600 mg QD, each given in combination with TDF/FTC 300/200 mg QD.
Participants attended study visits at screening, on Day 1, and once every 4 weeks from Week 4 to Week 24 (telephonic visits were conducted at Week 20). Participants were expected to continue treatment, then, through Week 96, with visit intervals every 8–12 weeks. A post-dose safety follow-up visit was also conducted 12 weeks after treatment discontinuation. Plasma HIV-1 RNA levels were quantified by the Abbott RealTime HIV-1 assay.
The FDA-defined snapshot algorithm was used for primary endpoint efficacy assessment, using the last plasma HIV-1 RNA value in the pre-defined Week 24 visit window (± 6 weeks) to determine response. The modified intent-to-treat (mITT) population consisted of participants who received at least one dose of GSK3532795 or EFV. […]

[10] = system: mouse P-glycoprotein (P-gp); conditions: higher bioavailability in P-gp knock-out mice / with elacridar; ref protocol Section 1.4.1.2; cited from earlier work
[11] = parameters: method as in protocol Section 1.4.1.2; conditions: 80 mg/kg/day, ref protocol Section 1.4.1.2, cited from earlier work
[12] = 10 mg/kg/day; ref protocol Section 1.4.1.2; cited from earlier work
[13] = system: HIV-1 with A364V or V362I plus secondary changes; parameters: method as in protocol Section 1.4.1.2; conditions: ref protocol Section 1.4.1.2, cited from earlier work
[14] = target: broad range of enzymes, transporters, and receptors, including cardiac ion channels; parameters: method as in protocol Section 1.4.1.2; conditions: ref protocol Section 1.4.1.2; read-out: IC50 or EC50 for in vitro off-target interactions; cited from earlier work
[15] = ref protocol Section 1.4.1.2, cited from earlier work
CYPs = system: CYPs; parameters: method as in protocol Section 1.4.1.2; conditions: ref protocol Section 1.4.1.2; cited from earlier work
[16] = parameters: method as in protocol Section 1.4.1.2; conditions: ref protocol Section 1.4.1.2; cited from earlier work
[17] = Part A, clade B, 10 days monotherapy, 5 mg

## C=C(C)[C@@H]1CC[C@]2(NCCN3CCS(=O)(=O)CC3)CC[C@]3(C)[C@H](CC[C@@H]4[C@@]5(C)CC=C(c6ccc(C(=O)O)cc6)C(C)(C)[C@@H]5CC[C@]43C)[C@@H]12 [GSK3532795]
[1]
  EC50: 5.6 nM
CYP3A4
  IC50: 32000 nM
[2]
  Protein binding: 86% and 86.1%
HIV-1 [3]; Part A, 10 mg
  Maximum decline log10 HIV-1 RNA, max: -1.76 Log10
  Maximum decline log10 HIV-1 RNA, mean: -1.05 Log10
  Maximum decline log10 HIV-1 RNA, median: -0.976 Log10
  Maximum decline log10 HIV-1 RNA, min: -0.64 Log10
HIV-1 [3]; Part A, 20 mg
  Maximum decline log10 HIV-1 RNA, max: -2.12 Log10
  Maximum decline log10 HIV-1 RNA, mean: -1.17 Log10
  Maximum decline log10 HIV-1 RNA, median: -1.115 Log10
  Maximum decline log10 HIV-1 RNA, min: -0.13 Log10
HIV-1 [3]; Part A, 40 mg
  Maximum decline log10 HIV-1 RNA, max: -1.88 Log10
  Maximum decline log10 HIV-1 RNA, mean: -1.55 Log10
  Maximum decline log10 HIV-1 RNA, median: -1.701 Log10
  Maximum decline log10 HIV-1 RNA, min: -0.93 Log10
HIV-1 [3]; Part A, 80 mg
  Maximum decline log10 HIV-1 RNA, max: -1.82 Log10
  Maximum decline log10 HIV-1 RNA, mean: -1.52 Log10
  Maximum decline log10 HIV-1 RNA, median: -1.555 Log10
  Maximum decline log10 HIV-1 RNA, min: -1.04 Log10
HIV-1 [3]; Part A, 120 mg
  Maximum decline log10 HIV-1 RNA, max: -2.07 Log10
  Maximum decline log10 HIV-1 RNA, mean: -1.53 Log10
  Maximum decline log10 HIV-1 RNA, median: -1.654 Log10
  Maximum decline log10 HIV-1 RNA, min: -0.83 Log10
HIV-1 [3]; [17]
  Maximum decline log10 HIV-1 RNA, max: -0.78 Log10
  Maximum decline log10 HIV-1 RNA, mean: -0.49 Log10
  Maximum decline log10 HIV-1 RNA, median: -0.498 Log10
  Maximum decline log10 HIV-1 RNA, min: -0.22 Log10
HIV-1 [3]; Part C, clade C, 40 mg
  Maximum decline log10 HIV-1 RNA, max: -2.03 Log10
  Maximum decline log10 HIV-1 RNA, median: -1.285 Log10
  Maximum decline log10 HIV-1 RNA, min: -1.04 Log10
HIV-1 [3]; Part C, clade C, 10 days monotherapy, 40 mg
  Maximum decline log10 HIV-1 RNA, mean: -1.5 Log10
HIV-1 [3]; alone or with ATV ± RTV for 10-28 days, preliminary
  Safety in Phase 2a: no deaths, SAEs, or AEs leading to discontinuation
HIV-1 [3]; doses 40 mg SDD once daily and above, clade B and clade C
  Median maximal reductions in HIV-1 RNA: > 1 log10
Cytochrome P450 (CYP)3A4
  Metabolism in human in vitro systems: primarily mediated via cytochrome P450 (CYP)3A4
93 subtype B viruses
  EC50: 2.2 nM
[4]; dose range 60–180 mg, with food and TDF/FTC
  Increase in systemic exposure with dose: less than dose-proportional
[4]; multiple doses 60, 120 or 180 mg with food and TDF/FTC
  Time at which median steady-state plasma concentrations reached peak: 4–5 hours post-dose
[5]; 30 mg/kg/day, ref protocol Section 1.4.1.2
  AUC at developmental NOAEL: 114 gh/mL
[5]; rat, in vivo
  Developmental NOAEL: 30 mg/kg/day
[5]; rats, ref protocol Section 1.4.1.2
  Developmental toxicity classification: not a selective developmental toxicant
[6]
  Genotoxicity in rat micronucleus assay: not genotoxic
HIV-1 [7]; 60 mg arm
  Rate of protocol-defined virologic failure (PDVF): 12% (6/50)
HIV-1 [7]; 120 mg arm
  Rate of protocol-defined virologic failure (PDVF): 10% (5/52)
HIV-1 [7]; 180 mg arm
  Rate of protocol-defined virologic failure (PDVF): 6% (3/51)
[8]; 20 mg/kg/day, 1 female, ref protocol Section 1.4.1.2
  Increase in serum ALT activity: 2.10 × pretest
[8]; 20 mg/kg/day, 2 females, ref protocol Section 1.4.1.2
  Loss of body weight: up to 8%
[8]; dog, in vivo
  NOAEL: 8 mg/kg/day
  NOAEL dose (heart rate): 20 mg/kg/day
HIV-1 [9]
  Participants achieving HIV-1 RNA <40 copies/mL: 76–83%
[10]
  P-gp substrate status: substrate of mouse P-glycoprotein (P-gp)
[11]
  AUC: 3.26 gh/mL
[11]; rabbits
  Developmental toxicity classification: not a developmental toxicant
[12]
  AUC at lowest dose with effects: 71 gh/mL
[13]; V362I plus secondary change-containing viruses, read-out: EC50, median
  EC50: 25 nM
[13]; virus with the A364V change
  Loss of susceptibility: > 100 fold
[14]
  IC50: > 5000 nM
[15]; 1 mg/kg/day
  AUC at NOAEL: 64.9 gh/mL
[15]; 3 mg/kg/day
  AUC at lowest dose with effects: 135 gh/mL
[15]; dog 9-month, stomach histologic changes
  NOAEL: 1 mg/kg/day
CYPs
  Time-dependent inhibition of CYPs: No
[16]
  Phototoxicity, mutagenicity, clastogenicity in vitro: not phototoxic, mutagenic, or clastogenic
